Entries after “also recorded” stand apart in the source; their conditions may differ.

Series [1] deals with T1, FhCL1 (Fasciola hepatica, UniProt Q7JNQ9).
T1 construct: made in house; host or cells: Hansenula polymorpha (yeast)
Description: FhCL1 inhibition screening, IC50 and slow-binding (fluorogenic substrate Z-VLK-AMC). The settings on record: 10 μM, preincubation 5 to 120 min. Format: biochemical.

In series [2] the target is T1, FhCL1. Described as above. Format: biochemical. The settings on record: read-out: %Inh FhCL1, 10 µM compound, 20 min preincubation, relative to enzyme alone; SD less than 10%. As to the method: (§1) Each compound was completely dissolved in dimethylsulfoxide (DMSO) to a concentration of 10 mM to prepare the stock solutions. To evaluate the inhibition of FhCL1 and FhCL3 by quinoxaline 1,4-di-N-oxide derivatives, nanomolar concentrations of each enzyme was incubated with compounds at 10 μM. Briefly, each enzyme and compound were preincubated 20 min in a 96-well plate in 0.1 M sodium phosphate buffer pH 6, 1 mM DTT, and 1 mM EDTA at room temperature. The reaction was initiated by adding 20 μM of substrate and enzyme activity was measured by the increase in aminomethyl coumarin (AMC) fluorescence as peptide substrates were hydrolyzed (Z-VLK-AMC for FhCL1 and Tos-GPR-AMC for FhCL3), at an excitation wavelength of 340 nm and emission wavelength of 440 nm using a spectrofluorometer (Varioskan Thermo, Waltham, MA, USA). Enzyme activity was expressed as RFU/s (relative fluorescence units of AMC released per second). Each compound was tested in triplicate. A control reaction without enzymes was performed to check for the occurrence of non-catalyzed reactions between substrates and inhibitors and a spectrum from 300 to 450 nm wavelength was done for each quinoxaline 1,4-di-N-oxide derivative to verify that none of them had optical activity in the measurement range. The percentage of enzyme inhibition was calculated as 100 − (vi/vo) × 100, where vi and vo correspond to the initial rate of AMC fluorescence increase (RFU/s) with and without inhibitor, respectively.
(§2) To calculate the IC50 values, compounds were incubated with each enzyme at seven different concentrations; 0.625, 1.25, 2.5, 5, 10, 20, and 40 μM. Then, the enzyme activity was measured in a 96-well plate as described before. We plotted initial rates (RFU/s) versus log10 of inhibitor concentrations and obtained the IC50 values by fitting the data to a sigmoid curve. We also carried out slow-binding assays to evaluate the time-dependence of the inhibition. Each compound was incubated at 10 μM with the enzyme for increasing lengths of time; 3 to 120 min and the percentage of inhibition at each time point was determined as described before. We calculated the inhibition percentage of the leader compounds at 10 μM for HsCL1. The enzyme was preincubated for 20 min with the compounds and the activity was measured in a 96-well plate in 400 mM sodium acetate, pH 5.5, with 4 mM EDTA, 8 mM DTT, and 20 μM of substrate Z-VLK-AMC. The percentage of enzyme inhibition was calculated as described for FhCL1 and FhCL3. We determined the IC50 value for C17 against HsCL by incubating the enzyme with four different concentrations of the compound 0, 10, 25, and 50 μM and measuring the activity as described before. We plotted initial rates (RFU/s) versus log10 of inhibitor concentration and obtained the IC50 value by fitting the data to a sigmoid curve.

Series [3] relates to F. hepatica NEJ. Description: In vitro culture of NEJ and treatment with inhibitors (motility score). Format: cell-based, Fasciola hepatica. The settings on record: 50 μM compound, over 96 h. The protocol: F. hepatica metacercariae were acquired from Instituto Miguel C. Rubino (DILAVE, MGAP, Uruguay). NEJ were obtained by in vitro excystement as previously described with minor modifications. Briefly, metacercariae were incubated with 1% sodium hypochlorite for 5 min at room temperature to remove the outer cyst wall and then washed several times with PBS. Metacercariae activation was carried out in a medium prepared by mixing equal volumes of solution A (0.4% sodium taurocholate, 120 mM NaHCO3, 140 mM NaCl, pH 8.0) and solution B (50 mM HCl and 33 mM L-cysteine), and incubating at 39 °C until the NEJ begin to emerge (around 3–4 h). A 100 μm filter was used to retain the cyst wall. Collected NEJ were washed three times with RPMI-1640 supplemented with 200 U/mL Penicillin G sulfate, […] streptomycin sulfate, 500 ng/mL amphotericin B, 10 mM HEPES, counted and divided into groups of around 20 parasites that were transferred to 96 wells in tissue culture plates. Parasites were maintained at 37 °C, 5% CO2 in modified Basch’s medium. At day 1, each tested compound was added at a concentration of 50 μM in 0.5% DMSO. Also, 0.5% of DMSO was added to the control groups. Each condition was tested in duplicate. NEJ behavior was monitored under a light microscope (Olympus BX41, Hamburg, Germany), every day each well was recorded for a minute in order to assess parasite motility and registered using the following score: 3—normally active; 2—reduced activity (sporadic movement); 1—immotile (dead, adapted from). Control parasites were maintained in culture for seven days.

Series [4] deals with FhCL3. Nature of the series: FhCL3 inhibition screening, IC50 and slow-binding (fluorogenic substrate Tos-GPR-AMC). Format: biochemical, Fasciola hepatica. The settings on record: 10 µM compound, 20 min preincubation, relative to enzyme alone; SD less than 10%. The protocol: as §1, §2
Series [5] deals with F. hepatica NEJ. Nature of the series: In vitro culture of NEJ and treatment with inhibitors (motility score). Format: cell-based. The settings on record: Fasciola hepatica; after 48 h of incubation with NEJ; read-out: IC50 against NEJ.
Another series concerns bovine spermatozoa. Description: Cytotoxicity assay with bovine spermatozoa (CASA motility). The settings on record: 50 µM, 1 h at 37 °C, relative to control sperm incubated with vehicle. Format: cell-based. The protocol: (§3) Cytotoxicity studies on the HepG2 cell line. Cells: 1.5 × 10^4 cells per 96-well plate were cultured in 225 µL of DMEM medium, supplemented with L-glutamine (1%), penicillin/streptomycin (1%), and 10% (v/v) fetal bovine serum (FBS). The cultures were maintained at 37 °C and 5% CO2 for 48 h. Treatment: Compound solutions were prepared just before dosing. Stock solutions, […], were prepared in 100% DMSO (Aldrich, Saint Louis, MO, USA) and 25 µL of adequate dilution was added to each well 24 h after plating the cells. For each compound, a dose-response curve was done with five different compound concentrations: 6.25, 12.5, 25, 50, and 100 µM (treated cells, T). No effect on cell growth was observed by the presence of 0.5% DMSO in the culture media (control cells, C). Cells were incubated with the compounds for 24 h at 37 °C in 5% CO2 atmosphere, then the medium was discarded and the cells were washed with PBS. The cells were then fixed with 50 µL of TCA (50%) and 200 µL of culture medium (without FBS) for 1 h at 4 °C. Then the cells were washed with purified water and treated with Sulforhodamin B (0.4% wt/vol in 1% acetic acid) for 10 min at room temperature. The plates were then washed with 1% acetic acid and dried overnight. Finally, 100 µL of Tris buffer (pH = 10.0) was added and absorbance read at 540 nm. Data calculations: The assays were done in four replicates. At the end of the experiment, the cell survival percentage (SP) was calculated for each compound as (T/C) × 100. To determine the IC50, the SP of cells at each compound concentration was plotted and the data were fitted to a sigmoid curve. The standard error was not greater than 10% for any condition. For the cytotoxicity assay with bovine spermatozoa, semen samples were obtained from a healthy fertile Hereford bull and kept frozen in 0.5 mL straws (extended in Andromed, Minitube, Tiefenbach, Germany) under liquid nitrogen until use. The semen used belonged to a single freezing batch that was obtained during a regular collection schedule with an artificial vagina. Samples from three straws were thawed and a sperm pool was prepared in PBS at a concentration of 80 million spermatozoa per ml. Then, 50 μL of this pool was carefully mixed with 50 μL of each compound to be tested at a concentration of 50 µM or 1% DMSO in control experiments. Each compound was assayed in triplicate in 96-well plates and controls were assayed in triplicate. Plates were incubated at 37 °C for 1 h with moderate shaking. The motility analysis was carried out using a CASA (Computer Assisted Semen Analyzer) system Androvision (Minitube, Tiefenbach, Germany) with an Olympus BX 41 microscope (Olympus, Japan) equipped with a warm-stage at 37 °C. Each sample (10 μL) was placed onto a Makler Counting Chamber (depth 10 μm, Sefi-Medical Instruments, Haifa, Israel) and the following parameters were evaluated: percentage of total motile spermatozoa (motility >5 μm/s) and velocity curved line (VCL > 24 μm/s). At least 400 spermatozoa were analyzed from each sample from at least four microscope fields.

The next series relates to HepG2 cell line. Nature of the series: Cytotoxicity on the HepG2 cell line (Sulforhodamin B). Format: cell-based. The settings on record: Homo sapiens, 24 h incubation with compound. As to the method: as §3
The target of another series is human cathepsin L (HsCL) (Homo sapiens, UniProt P07711). Description: Human cathepsin L (HsCL) inhibition, selectivity assessment. Format: biochemical. The protocol: as §2
Sequence of human cathepsin L (HsCL) (P07711 114-333): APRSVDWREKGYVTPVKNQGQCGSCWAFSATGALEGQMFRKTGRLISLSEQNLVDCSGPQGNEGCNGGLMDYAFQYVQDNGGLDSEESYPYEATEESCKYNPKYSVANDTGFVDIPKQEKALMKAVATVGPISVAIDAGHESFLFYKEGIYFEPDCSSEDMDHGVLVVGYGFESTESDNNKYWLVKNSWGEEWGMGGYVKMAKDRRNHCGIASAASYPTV
In series [6] the test system is FhCL3. Nature of the series: FhCL3 inhibition screening, IC50 and slow-binding (fluorogenic substrate Tos-GPR-AMC). Format: biochemical, Fasciola hepatica. The settings on record: 10 μM, preincubation 5 to 120 min.

T1 sequence (Q7JNQ9 entry or part of it): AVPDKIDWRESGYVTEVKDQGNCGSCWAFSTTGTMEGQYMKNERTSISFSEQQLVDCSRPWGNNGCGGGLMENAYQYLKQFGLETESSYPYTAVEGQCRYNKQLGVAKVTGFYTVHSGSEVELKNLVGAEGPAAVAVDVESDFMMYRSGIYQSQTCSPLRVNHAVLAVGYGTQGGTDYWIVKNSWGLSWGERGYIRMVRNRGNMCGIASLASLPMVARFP

In the case of `N#Cc1c(N)[n+]([O-])c2ccc(/C=N/NC(=O)NCCc3ccccc3)cc2[n+]1[O-]` [Compound C7], the “Time-dependence of FhCL1 inhibition (slow-binding)” value (from here on “Time-dependence of FhCL1 inhibition”) on FhCL1 [1] is listed as “required short times to inhibit FhCL1 enzyme”. For the same compound, the inhibition at 10 µM at FhCL1 [2] was 90%. In addition, the “Effect on NEJ motility / fasciolicide activity in vitro” value in the series on F. hepatica NEJ [3] was “did not have activity against the parasites; also recorded: did not have fasciolicidal activity”. In the series with FhCL3 [4], the “%Inh FhCL3” value came to 61%.
Turning to `C=CCNC(=S)N/N=C/c1ccc2c(c1)[n+]([O-])c(C(=O)OCC)c(-c1ccccc1)[n+]2[O-]` [Compound C17], at FhCL1 [1], the “Time-dependence of FhCL1 inhibition” value is on record as “required short times to inhibit FhCL1 enzyme”. Further, the IC50 – broadly, the midpoint of a concentration-inhibition curve – stood at 25.1 µM with F. hepatica NEJ [5]; 48 ± 0.3 µM with HepG2 cell line; 13 µM against human cathepsin L (HsCL) (dose-response at 0, 10, 25 and 50 μM). Also, the “Sperm Motility RTC (relative to control)” value with bovine spermatozoa came out at 81 ± 3. In addition, the inhibition at 10 µM on FhCL1 [2] was not below 80%. Besides, the “Effect on NEJ motility / fasciolicide activity in vitro” value in the series on F. hepatica NEJ [3] is “progressive decrease of parasite motility starting between 24 and 96 h of culture; also recorded: strong fasciolicide activity in vitro”. For the same compound, on human cathepsin L (HsCL) (parasite enzyme FhCL1 over human cathepsin L), the “Selectivity index FhCL1” value is reported as 9.3. Besides, the “Selectivity index FhCL3” value at human cathepsin L (HsCL) (parasite enzyme FhCL3 over human cathepsin L) amounted to 2.6.
As for `CCOC(=O)c1c(-c2ccccc2)[n+]([O-])c2ccc(CN3CCN(C/C=C/c4ccccc4)CC3)cc2[n+]1[O-]` [Compound C18], the “Time-dependence of FhCL3 inhibition (slow-binding)” value with FhCL3 [6] is recorded as “reached high inhibition of FhCL3 within a few minutes of incubation”. Moreover, the “Sperm Motility RTC (relative to control)” value with bovine spermatozoa is recorded as 82 ± 2. For the same compound, the inhibition at 10 µM at FhCL1 [2] is 55%. Moreover, the “Effect on NEJ motility / fasciolicide activity in vitro” value in the series on F. hepatica NEJ [3] is “progressive decrease of parasite motility starting between 24 and 96 h of culture; also recorded: strong fasciolicide activity in vitro”. Also, the 50% inhibitory concentration (IC50) with HepG2 cell line was less than 6.2 µM. Moreover, in the series with FhCL3 [4], the “%Inh FhCL3” value was determined as 61%.
For the compound `C=CCNC(=S)N/N=C/c1ccc2c(c1)[n+]([O-])c(-c1ccccc1)c(C(=O)Nc1ccccc1)[n+]2[O-]` [Compound C23], the “Time-dependence of FhCL1 inhibition” value on FhCL1 [1] is “required short times to inhibit FhCL1 enzyme”. Besides, the “Time-dependence of FhCL3 inhibition (slow-binding)” value in the series with FhCL3 [6] is “reached high inhibition of FhCL3 within a few minutes of incubation”. The “Sperm Motility RTC (relative to control)” value with bovine spermatozoa turned out to be 82 ± 1. Further, at FhCL1 [2], the inhibition at 10 µM was not below 80%. The “Effect on NEJ motility / fasciolicide activity in vitro” value with F. hepatica NEJ [3] is “slightly affected parasite motility; also recorded: did not have fasciolicidal activity”. Also, in the series with HepG2 cell line, the IC50 was determined as 12 ± 0.2 µM.
`C=CCN1C(=O)CS/C1=N/N=C/c1ccc2c(c1)[n+]([O-])c(-c1ccccc1)c(C(=O)Nc1ccccc1)[n+]2[O-]` [Compound C24]: in the series on bovine spermatozoa, the “Sperm Motility RTC (relative to control)” value came to 82 ± 1. In addition, the inhibition at 10 µM on FhCL1 [2] was not below 80%. Further, the “Effect on NEJ motility / fasciolicide activity in vitro” value in the series with F. hepatica NEJ [3] is “progressive decrease of parasite motility starting between 24 and 96 h of culture; also recorded: strong fasciolicide activity in vitro”. Besides, the IC50 in the series on HepG2 cell line came out at 16 ± 0.1 µM.
Take `CSc1nc2cc(Cl)c(Oc3cccc(Cl)c3Cl)cc2[nH]1` [TCBZ, triclabendazole, reference compound]: the “Sperm Motility RTC (relative to control)” value in the series on bovine spermatozoa was determined as 88 ± 1. In addition, the IC50 in the series on HepG2 cell line came out at 32 ± 0.2 µM.

(Values after paper PMC6651555, “Cathepsin L Inhibitors with Activity against the Liver Fluke Identified From a Focus Library of Quinoxaline 1,4-di-N-Oxide Derivatives” (Molecules, 2019).)
